SMILES strings stand for the structures.

In the assay the target is CB2 receptor (hCB2) (Homo sapiens, UniProt P34972). Put plainly: competitive radioligand binding, [3H]CP-55, […] displacement.
Sequence of CB2 receptor (hCB2) (P34972 whole entry): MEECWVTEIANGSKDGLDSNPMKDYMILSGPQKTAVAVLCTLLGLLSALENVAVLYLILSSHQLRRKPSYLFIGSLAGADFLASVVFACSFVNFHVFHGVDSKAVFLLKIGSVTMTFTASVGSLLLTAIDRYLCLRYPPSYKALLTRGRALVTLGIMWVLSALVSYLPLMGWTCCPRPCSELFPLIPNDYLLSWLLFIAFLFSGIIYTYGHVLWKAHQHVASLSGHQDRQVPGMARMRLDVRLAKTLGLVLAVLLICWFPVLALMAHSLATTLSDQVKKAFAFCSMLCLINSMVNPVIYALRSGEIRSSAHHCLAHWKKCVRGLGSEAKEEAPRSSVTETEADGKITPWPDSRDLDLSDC

Turning to `C=C(C)[C@@H]1CC[C@]2(C(=O)O)CC[C@]3(C)[C@H](CC[C@@H]4[C@@]5(C)CC[C@H](O)C(C)(C)[C@@H]5CC[C@]43C)[C@@H]12` [BA, Betulinic acid], affinity was put at a Ki of 41.2 µM.
